The results in this text go back to PubChem BioAssay AID2305 (GlaxoSmithKline (GSK), 2010).

The test system of the assay is P. falciparum 3D7 growth, pLDH absorbance. The assay is described as follows: blood-stage malaria parasite growth potency – strain 3D7, dose response (AID 2305).
Broadly, the IC50 is the concentration at which inhibition is half-maximal. Read a high IC50 as a need for much substance. In turn, `COc1cc(C(=O)Nc2cccc(-c3cn4ccc(C)cc4n3)c2)cc(OC)c1OC` had an IC50 of 760 nM. As for `COc1cccc2c(Oc3ccccc3C)ccnc12`, the figure is 1230 nM; as for `CC[C@H]1CN2CC[C@H]1C[C@H]2[C@H](O)c1cc(N2CCCC(C(=O)N(CC)CC)C2)nc2ccc(OC)cc12` (stereo partly specified), 70 nM; as for `CCCS(=O)(=O)c1nc(S(=O)(=O)c2ccc(Cl)cc2)c(N2CCCCC2)s1`, 1290 nM. As for `CC(C)N1CCN(c2ccc(OCCCCN3CCN(c4cccc(Cl)c4Cl)CC3)c(C(F)(F)F)c2)CC1`, the figure is 820 nM. Next, `CCC(C)OC(=O)C1=C(C)NC2=C(C(=O)CC(c3ccc(OC)c(OC)c3)C2)C1c1ccc(C)o1` (stereo unspecified): 900 nM; `O=C(N[C@@H](Cc1ccccc1)C(=O)NC1CCCCCC1)c1ccc(O)c(-c2cccc(C(F)(F)F)c2)c1`: 730 nM.

In the case of `N#Cc1ccc(-c2ccc(C(=O)NCCCCN3CC=C(c4ccc5c(c4OCC4CC4)CCCC5)CC3)cc2)cc1`, the IC50 was 620 nM.

On to `Cc1c(CNCCCNc2cc(=O)c3ccccc3[nH]2)sc(C(F)=C(F)F)c1Br`, for which the 50% inhibitory concentration (IC50) worked out at 840 nM. As for `CC(C)[C@H](NC(=O)c1ccc(O)c(-c2ccc(Cl)c(Cl)c2)c1)C(=O)NCCN1CCCCC1`, the figure is 340 nM. In turn, `CCN(CC)CCNC(=O)c1ccc(N=Cc2c(O)[nH]c3ccc(S(=O)(=O)Cc4c(Cl)cccc4Cl)cc23)cc1` had an IC50 of 840 nM. Next, `O=S(=O)(Nc1cc2c(cc1O)CCN(C1CCC1)CC2)c1ccc(-c2ccc(F)cc2)cc1`: 420 nM. As for `CN(C)CCOc1cc(NC(=O)Nc2ccc(Oc3ccccc3)cc2)ccc1I`, the figure is 890 nM; as for `CCN1CCc2c1cc(C(=O)N[C@@H](Cc1ccccc1)[C@H](O)CNC(C)(C)c1cccc(C(F)(F)F)c1)cc2N1CCCCS1(=O)=O`, 110 nM. Consider `COc1ccc(CN(C)CCCOc2ccc(NC(=O)c3cccc4c(=O)c5cccc(C)c5[nH]c34)cc2)cc1OC`, for which the half-inhibitory concentration (IC50) stood at 890 nM. Next, `CC(C)(C)c1ccc(N2C(N)=NC(N)=NC2(C)C)cc1`: 30 nM; `COc1ccc(Cc2cnc3nc(N)nc(N)c3c2C)cc1OC`: 10 nM; `O=S(=O)(NC1CCN(c2ccnc3cc(Cl)ccc23)C1)c1cccs1` (stereo unspecified): 700 nM.

As for `Nc1ccnc2ccc(OCCCCCCc3ccccc3)cc12`, the 50% inhibitory concentration (IC50) was 520 nM. Next, `O=S(=O)(c1ccccc1Cl)N1CCCCC(c2ccc(C(F)(F)F)cc2)=N1`: 940 nM. As for `Cc1cc(Nc2ccc(OCc3ccccc3Cl)cc2)c2cc(Cl)ccc2n1`, the figure is 430 nM; as for `O=C(Nc1cccc(Cl)c1)c1cnc(N2CCN(c3ccncc3)CC2)c(Cl)c1`, 960 nM.

`Cc1cc(C)c2cc(CNCCCNc3nc4ccccc4[nH]3)[nH]c2c1` registered a half-inhibitory concentration (IC50) of 770 nM. As for `CCCCCCCCCN1CC[C@@H](CCCc2ccnc3ccc(O)cc23)[C@@H](CC)C1`, the figure is 290 nM. As for `O=C(NC1CC1)c1ccc(N2CCC(c3ccccc3)CC2)nc1`, the figure is 1110 nM; as for `O=C(Nc1ccc(Cl)cc1C(=O)Nc1cccc(F)c1)c1ccc([N+](=O)[O-])cc1`, 370 nM.

As to `CN1CCC(c2cc3c(cc2Br)CCN3C(=O)Nc2ccc(-c3ccncc3)c(Cl)c2)CC1`, the IC50 was found to be 1010 nM. As for `O=C(CCc1ccccc1)NC(c1ccc(Cl)cc1)c1ccc2cccnc2c1O` (stereo unspecified), the figure is 850 nM; as for `S=C(NCCCCCN1CCC(c2c[nH]c3ccccc23)CC1)Nc1cccc(I)c1`, 840 nM.

`NC(N)=Nc1ccc(NC(=O)Nc2ccc(N=C(N)N)cc2)cc1` registered an IC50 of 390 nM. Next, `Nc1nc(N)c2c(CCc3ccc4ccccc4c3)cccc2n1`: 690 nM; `COc1cc(NCCCCNc2ccc(Cl)c(Cl)c2)nc2ccccc12`: 530 nM.

Consider `COc1cc(Nc2ccnc3cc(-c4ccccn4)ccc23)cc(OC)c1OC`, for which the IC50 is 910 nM. Next, `CC(C)(C)OC(=O)N1CCN(c2ccccc2NC(=O)c2cccc(C(F)(F)F)c2Oc2ccc(F)cc2)CC1`: 860 nM. As for `CC[C@H](C)CNC(=O)c1ccnc(-c2ccc(CNC3Cc4ccccc4C3)cc2)c1`, the figure is 570 nM. As for `O=C(Nc1ccc(Cl)c(Cl)c1)Nc1ccccc1N1CCNCC1`, the figure is 710 nM; as for `COc1cccc(C(=O)C2CC2CN2CC=C(c3c(C)[nH]c4ccccc34)CC2)c1` (stereo unspecified), 710 nM; as for `CCOC(=O)c1ccc(N2CCN(c3cc(C)ccc3C)CC2)c(NC(=O)Nc2ccc(Cl)c(Cl)c2)c1`, 710 nM. For the compound `O=C(NC1CCN(c2ccnc3ccccc23)C1)c1cccc(C(F)(F)F)c1` (stereo unspecified), the IC50 is 900 nM. Next, `COc1ccc(C2C(C(=O)Nc3ccc(C)cc3Br)c3ccccc3C(=O)N2C)cc1` (stereo unspecified): 940 nM; `COc1ccc(CNC2CCN(C)CC2)cc1-c1ccc(OC)c(S(=O)(=O)NCc2ccccc2)c1`: 950 nM; `CN(c1ccc2c(c1)nc(Nc1cc(C(C)(C)C)on1)n2C)c1ccnc(Nc2ccc(CS(C)(=O)=O)cc2)n1`: 900 nM.

The compound `Cc1ncc([N+](=O)[O-])n1CCOC(=O)NC(Nc1ccc(Br)cc1)C(Cl)(Cl)Cl` (stereo unspecified) registered a 50% inhibitory concentration (IC50) of 960 nM.

Turning to `COc1ccc2c(NN=C(C)c3ccccn3)cc(C)nc2c1`, the IC50 amounted to 720 nM. Next, `COc1ccc2ncc(Cl)c(CCN3CCC(NCc4ccc5c(n4)NC(=O)CO5)CC3)c2c1`: 470 nM; `CC(Nc1ccc2c(c1)OCCO2)C(=O)Nc1cc(C(F)(F)F)ccc1N1CCOCC1` (stereo unspecified): 410 nM. As for `Cc1cc(NC(=O)NCCN2CCC(NC(=O)c3ccc(C(F)(F)F)cc3)CC2)c2ccccc2n1`, the figure is 410 nM; as for `O=C(CCc1cnc[nH]1)Nc1cccc(-c2cccc(-c3nc4ccc(C(F)(F)F)cc4[nH]3)c2)c1`, 130 nM; as for `CC(C)C(=O)NC(c1ccc(N(C)C)cc1)c1cc(Cl)c2cccnc2c1O` (stereo unspecified), 860 nM. As for `CC(=O)Nc1ccc(CN2CCC(N(C)c3ccc(NC(=O)c4cccc(C)c4)cc3)CC2)cc1`, the figure is 990 nM; as for `CCN(C(=O)NC)[C@@H]1c2cc(C#N)ccc2OC(C)(C)[C@H]1O`, 300 nM.

`CN(C)CCNC(=O)c1cccc(-c2cnc3ccc(NCc4ccc(Cl)c(Cl)c4)nn23)c1` registered a half-inhibitory concentration (IC50) of 700 nM. For the compound `CN(C)Cc1ccc2nc(-c3cccc(Cc4cc(Cl)ccc4OCc4ccc(Cl)cc4F)n3)[nH]c2c1`, the concentration for half-maximal inhibition (IC50) was found to be 1130 nM. Next, `CC(C)CNCc1ccc(-c2cccc(-c3nc4ccccc4[nH]3)c2)cc1`: 630 nM; `COc1cc(Cc2cnc(N)nc2N)cc(OCCCCC2NC(=O)NC2=O)c1OC` (stereo unspecified): 710 nM. As for `COc1cccc(CNC[C@@H](O)[C@H](Cc2ccccc2)NC(=O)c2cc(NC(C)C)cc(N3CCCCS3(=O)=O)c2)c1`, the figure is 780 nM; as for `Cc1cc(NC(=O)CCCN2CCN(c3cccc(Cl)c3Cl)CC2)ccc1N1CCN(C(C)C)CC1`, 760 nM. As for `COc1cc(CCOc2c(C)nc(N)nc2N)cc(OC)c1OC`, the figure is 20 nM; as for `CN(C)CCOc1ccc2c(=O)cc(CCc3cccc(F)c3F)n(CC(=O)N(C)Cc3ccc(-c4ccc(C(F)(F)F)cc4)cc3)c2c1`, 1200 nM; as for `O=C(NCc1ccc(Cl)c(Cl)c1)c1ccc(-c2nc3ccc(F)cc3[nH]2)cc1`, 1030 nM. In the case of `O=C(Nc1ccncc1)Nc1ccc2c(c1)CCN(C1CCC1)CC2`, the IC50 was determined as 1130 nM. The compound `CCCCCn1c(Sc2ccc(C#N)c([N+](=O)[O-])c2)nnc1-c1cccs1` showed a half-inhibitory concentration (IC50) of 780 nM. Next, `Cc1cccc2[nH]c(-c3cccc(-c4cccc(NC(=O)c5ccc(=O)[nH]n5)c4)c3)nc12`: 790 nM. For the compound `Cc1ccccc1C1CCN(c2ccc(C(=O)Nc3ccccc3)cn2)CC1`, the IC50 was determined as 330 nM.

In the case of `O=C(Nc1ccc(Cl)cc1)c1ccc(CN2CCCN(Cc3ccccc3)CC2)cc1`, the 50% inhibitory concentration (IC50) came out at 750 nM.

In turn, `CC(C)(CN1CCCC1)CN(Cc1ccc(-c2ccc(C(F)(F)F)cc2)cc1)C(=O)Cn1c(CCc2cccc(F)c2F)nc(=O)c2ccccc21` yielded an IC50 of 790 nM.

On to `CCc1c(CCNCCCCCCNC(C)Cc2ccc3c(c2CC)OCO3)ccc(OC)c1OC` (stereo unspecified), for which the 50% inhibitory concentration (IC50) came out at 870 nM. Next, `CCC(C)(CC)C(=O)n1ncc2c3c(N)nc(N)nc3ccc21`: 10 nM; `Cc1ccc(O)cc1C[C@@H]1C(=O)CC[C@@]2(C)[C@H]1CC[C@]2(C)O`: 960 nM; `Cn1c(Nc2nnc(C3CC3)s2)nc2cc(Nc3ccnc(Nc4cccc(CS(C)(=O)=O)c4)n3)ccc21`: 680 nM. In turn, `Cc1cc(=O)c2cc(Oc3cccc(OC(F)(F)F)c3)ccc2[nH]1` displayed an IC50 of 860 nM.

In turn, `c1cc(-c2ccc(CNCCCn3ccnc3)cc2)cc(-c2nc3ccccc3[nH]2)c1` had a half-inhibitory concentration (IC50) of 110 nM. Next, `Cc1noc(C)c1-c1ccc2c(Nc3ccc(Cl)cc3)c(C(N)=O)cnc2c1`: 830 nM. `COc1cccc(-c2cc(C(=O)Nc3ccc4nc(-c5ccccc5)[nH]c4c3)[nH]n2)c1` gave a half-inhibitory concentration (IC50) of 840 nM. As for `COc1ccc(NC(=O)Nc2nc(-c3ccc(Cl)c(C)c3)cs2)cc1N1CCN(C)CC1`, the figure is 270 nM; as for `Cc1ccccc1CNc1ccc2nc(N)nc(N)c2c1`, 170 nM.

Take `O=c1cc(NCCCNCc2cccc(OC(F)(F)F)c2)[nH]c2ccccc12`: the IC50 was determined as 850 nM.

In turn, `NC(=O)c1cccc(C(=O)Nc2ccc(-c3cccc(-c4nc5ccc(C(F)(F)F)cc5[nH]4)c3)cc2)c1` registered an IC50 of 350 nM. Next, `COc1ccc(-c2nc3c(N)nc(N)nc3nc2C(C)C)cc1`: 190 nM; `CCNc1cc(C(=O)N[C@@H](Cc2ccccc2)[C@H](O)CN[C@H]2CCc3ccccc32)cc(N2CCCC2=O)c1`: 290 nM. As for `CCN(CC)CCCn1c(N)c(-c2nc3ccccc3[nH]2)c2nc(C#N)c(C#N)nc21`, the figure is 270 nM; as for `CCOc1ccc(-c2nonc2NC(=O)c2ccccc2OC)cc1OCC`, 240 nM; as for `Cc1cc(C2CCN(CCCCNC(=O)c3ccc(-c4ccc(C(F)(F)F)cc4)cc3)CC2)c(C)cc1OCC(N)=O`, 800 nM. As for `Brc1ccc(Nc2nc(NCc3ccccc3)c3ccccc3n2)cc1`, the figure is 340 nM; as for `O=C(NC1CCCCC1)N(Cc1cccc(-c2cccc(CNC3CCCC3)c2)c1)C1CCN(Cc2ccccc2)CC1`, 740 nM. Consider `CC1(C)[C@H]2CC[C@@H](CNc3nc(NCC(=O)Nc4ccc5ccccc5c4)nc(N4CCC(N5CCCC5)CC4)n3)[C@@H]1C2`, for which the IC50 turned out to be 1190 nM.
